# Laboratory results from ChEMBL document CHEMBL3865826, “Synthesis and biological evaluation of a series of non-hemiacetal ester derivatives of artemisinin” (Eur J Med Chem, 2016).
# Legend:
# [1] = Growth inhibition of human TK10 cells measured after 24 hrs by SRB assay; assay type: functional, cell-based; conditions: TK-10, 24 h
# [2] = test system: Plasmodium falciparum; experiment: Antiplasmodial activity against chloroquine-sensitive asexual erythrocyte stage form Plasmodium falciparum NF54 measured after 48 hrs by pLDH assay; assay type: functional; conditions: NF54, 48 h
# [3] = Growth inhibition of human MCF7 cells measured after 24 hrs by SRB assay; assay type: functional, cell-based; conditions: MCF7, 24 h
# [4] = test system: MCF7; experiment: Selectivity index, ratio of IC50 for human WI38 cells to IC50 for human MCF7 cells; assay type: functional
# [5] = Selectivity index, ratio of IC50 for human MCF7 cells to IC50 for chloroquine-resistant asexual erythrocyte stage form Plasmodium falciparum Dd2; assay type: functional
# [6] = test system: CHO; experiment: Selectivity index, ratio of IC50 for CHO cells to IC50 for human MCF7 cells; assay type: functional
# [7] = Selectivity index, ratio of IC50 for human WI38 cells to IC50 for chloroquine-sensitive asexual erythrocyte stage form Plasmodium falciparum NF54; assay type: toxicity, cell-based, WI-38; conditions: read-out: Ratio IC50
# [8] = Resistance index, ratio of IC50 for chloroquine-resistant asexual erythrocyte stage form Plasmodium falciparum Dd2 to IC50 for chloroquine-sensitive asexual erythrocyte stage form Plasmodium falciparum NF54; assay type: functional
# [9] = Cytotoxicity against CHO cells assessed as reduction in cell viability measured after 48 hrs by MTT assay; assay type: toxicity, cell-based, Cricetulus griseus; conditions: Chinese hamster
# [10] = test system: Plasmodium falciparum; experiment: Antiplasmodial activity against chloroquine-resistant asexual erythrocyte stage form Plasmodium falciparum Dd2 measured after 48 hrs by pLDH assay; assay type: functional; conditions: Dd2, 48 h
# [11] = Selectivity index, ratio of IC50 for CHO cells to IC50 for chloroquine-sensitive asexual erythrocyte stage form Plasmodium falciparum NF54; assay type: toxicity, cell-based; conditions: hamster, read-out: Ratio IC50
# [12] = Growth inhibition of human UACC62 cells measured after 24 hrs by SRB assay; assay type: functional, cell-based; conditions: UACC-62, 24 h
# [13] = Cytotoxicity against human WI38 cells assessed as reduction in cell viability measured after 48 hrs by SRB assay; assay type: toxicity, cell-based, WI-38
# [14] = Thermal stability of the compound assessed as melting point by thermogravimetric analysis; assay type: physicochemical
# [15] = Selectivity index, ratio of IC50 for human TK10 cells to IC50 for chloroquine-resistant asexual erythrocyte stage form Plasmodium falciparum Dd2; assay type: functional, TK-10
# [16] = test system: WI-38; experiment: Selectivity index, ratio of IC50 for human WI38 cells to IC50 for human TK10 cells; assay type: functional
# [17] = Selectivity index, ratio of IC50 for human UACC62 cells to IC50 for chloroquine-resistant asexual erythrocyte stage form Plasmodium falciparum Dd2; assay type: functional, UACC-62
# [18] = test system: UACC-62; experiment: Selectivity index, ratio of IC50 for human WI38 cells to IC50 for human UACC62 cells; assay type: functional
# [19] = Thermal stability of the compound assessed as onset of decomposition temperature by thermogravimetric analysis; assay type: physicochemical
SMILES,IC50 [1] [µM],IC50 [2] [µM],IC50 [3] [µM],Ratio IC50 [4],Ratio IC50 [5],Ratio IC50 [6],selectivity ratio [7],Ratio IC50 [8],IC50 at 48 h [9] [µM],IC50 [10] [µM],selectivity ratio [11],IC50 [12] [µM],IC50 at 48 h [13] [µM],Tm [14] [°C],Ratio IC50 [15],Ratio IC50 [16],Ratio IC50 [17],Ratio IC50 [18],T [19] [°C]
CCCC(=O)OCC1(C)O[C@@H]2O[C@]3(C)CC[C@H]4[C@H](C)CC[C@@H]1[C@@]24OO3 (some centres not stated),> 100,0.0169,53.6,>2,7768,>2,> 5920,0.4,> 100,0.0069,> 5920,> 100,> 100,,,,,,
CO[C@H]1O[C@@H]2O[C@@]3(C)CC[C@H]4[C@H](C)CC[C@@H]([C@H]1C)[C@@]24OO3 [ARTEMETHER],,0.0038,,,,,,0.6,> 100,0.0023,> 26300,,,186,,,,,
C[C@@H]1CC[C@H]2C(C)(C=O)O[C@@H]3O[C@]4(C)CC[C@@H]1[C@]32OO4 (some centres not stated),36.6,0.0069,6.4,6,1560,,> 14500,0.6,> 100,0.0041,> 14500,7.8,> 100,174.9,8927,>3,1900,>13,
C=C1C(=O)O[C@@H]2C3O[C@]3(C)CC/C=C(\C)CC[C@@H]12 (some centres not stated),6.4,,5.8,,,,,,,,,15,,,,,,,
C[C@@H]1CC[C@H]2C(C)(COC(=O)c3cc4ccccc4o3)O[C@@H]3O[C@]4(C)CC[C@@H]1[C@]32OO4 (some centres not stated),> 100,0.0146,18.2,>6,2563,>6,> 6850,0.5,> 100,0.0071,> 6850,78.7,> 100,172.1,,,11085,,
C[C@@H]1CC[C@H]2C(C)(CO)O[C@@H]3O[C@]4(C)CC[C@@H]1[C@]32OO4 (some centres not stated),> 100,0.0041,> 100,,,,> 24400,1.8,> 100,0.0074,> 24400,> 100,> 100,160.9,,,,,144
C[C@@H]1CC[C@H]2C(C)(COC(=O)c3cccs3)O[C@@H]3O[C@]4(C)CC[C@@H]1[C@]32OO4 (some centres not stated),> 100,0.0048,46.6,>2,7898,>2,> 20800,1.2,> 100,0.0059,> 20800,39.3,> 100,170.8,,,6661,,
C[C@H]1[C@@H](O)O[C@@H]2O[C@@]3(C)CC[C@H]4[C@H](C)CC[C@@H]1[C@@]24OO3 [ARTENIMOL],,0.0022,,,,,,0.6,> 100,0.0012,> 45500,,,160,,,,,
